Literature values, collected in patent US20020082283A1, “Nitrogen-containing compounds and their use as glycine transport inhibitors” (Gliatech, Inc., priority 2000, published 2002).

Test system: NMDA receptor
Details: in vitro at concentrations at which clinical efficacy is seen

## O=C(CCCN1CCC(O)(c2ccc(Cl)cc2)CC1)c1ccc(F)cc1 [haloperidol]
  increase in NMDA receptor activity: ~40%
